Results on 2 compounds are retold here after paper PMC6897945, “CytA, a reductase in the cytorhodin biosynthesis pathway, inactivates anthracycline drugs in Streptomyces” (Communications Biology, 2019).

Data set [1] has as its system CytA. The data set is described as follows: Enzyme kinetics of CytA (formation of deglycosylation products, anaerobic). The class given is biochemical, Streptomyces sp. SCSIO 1666. Particulars: for fold more efficient CytA processing than for 22–26: relative to clinical anthracyclines 22–26; for Km / kcat: substrate of CytA, 0.5 μM CytA, 20 μM NADH, anaerobic. The method, boiled down: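 N-terminally His6-tagged CytA expressed in E. coli was run anaerobically (N2/H2/CO2) in 50 mM Tris-Cl pH 8.0 with 0.5 μM enzyme, 20 μM NADH and 4.5–450 μM substrate at 37 °C. Reactions were MeOH-quenched and deglycosylation products quantified by HPLC-UV (254/500 nm). Km and Vmax came from Michaelis-Menten fits of initial velocities, triplicate.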

The test system of data set [2] is B. subtilis BS01. As to the kind of experiment: Antibacterial activity, broth dilution MIC. The class given is cell-based. Particulars: Bacillus subtilis, BS01, read-out: MIC values, BS. An outline of the steps:
(§1)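 Twofold serial dilutions in MH broth were tested by broth dilution per CLSI standard methods. The panel was B. subtilis BS01, S. aureus ATCC 29213 and 745524, B. thuringiensis BT01 and E. faecalis ATCC 29212.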

Data set [3] relates to B. thuringiensis BT01. The data set is described as follows: Antibacterial activity, broth dilution MIC. The settings on record: Bacillus thuringiensis, BT01, read-out: MIC values, BT. The data set is classed as cell-based. The method, boiled down:
as §1

Data set [4] has as its system E. faecalis ATCC 29212. As to the kind of experiment: Antibacterial activity, broth dilution MIC. The data set is classed as cell-based. Particulars: Enterococcus faecalis, ATCC29212, read-out: MIC values, EF. The method, boiled down:
as §1

For data set [5], the system named is Staphylococcus aureus 745524. As to the kind of experiment: Antibacterial activity, broth dilution MIC. The class given is cell-based. Particulars: Staphylococcus aureus, 745524, read-out: MIC values, SA2. The method, boiled down:
as §1

Data set [6] deals with Staphylococcus aureus ATCC 29213. As to the kind of experiment: Antibacterial activity, broth dilution MIC. The class given is cell-based. The settings on record: Staphylococcus aureus, ATCC29213, read-out: MIC values, SA1. An outline of the steps: as §1
Data set [7] can be described thus: Cytotoxic activity, MTT method. The class given is cell-based. Particulars: human. The text has this:
(§2) All data were obtained in triplicate and are presented as means.

Data set [8] relates to A549 human lung cancer cell line. As to the kind of experiment: Cytotoxic activity, MTT method. The data set is classed as cell-based. Particulars: A549, read-out: Cytotoxic activities IC50, A549.
Description: as §2

Data set [9] has as its system HeLa human cervical carcinoma cell line. As to the kind of experiment: Cytotoxic activity, MTT method. The class given is cell-based. The settings on record: read-out: Cytotoxic activities IC50, HeLa.
Description: as §2

The test system of data set [10] is HepG2 human hepatocellular carcinoma cell line. As to the kind of experiment: Cytotoxic activity, MTT method. The class given is cell-based. The settings on record: HepG2, read-out: Cytotoxic activities IC50, HepG2.
Description: as §2

Data set [11] concerns MCF-7 human breast adenocarcinoma cell line. The data set is described as follows: Cytotoxic activity, MTT method. The class given is cell-based. Particulars: MCF7, read-out: Cytotoxic activities IC50, MCF-7.
Description: as §2

Data set [12] deals with MDA-MB-231 human triple negative breast adenocarcinoma cell line. The data set is described as follows: Cytotoxic activity, MTT method. The class given is cell-based. Particulars: MDA-MB-231, read-out: Cytotoxic activities IC50, MDA-MB-231.
Description: as §2

In data set [13] the test system is MDA-MB-468 human triple negative breast adenocarcinoma cell line. The data set is described as follows: Cytotoxic activity, MTT method. The data set is classed as cell-based. Particulars: MDA-MB-468, read-out: Cytotoxic activities IC50, MDA-MB-468.
Description: as §2

Data set [14] deals with RKO human colorectal carcinoma cell line. The data set is described as follows: Cytotoxic activity, MTT method. The settings on record: read-out: Cytotoxic activities IC50, RKO. The data set is classed as cell-based.
Description: as §2

In data set [15] the test system is Staphylococcus aureus. Further details: method as in earlier work. Particulars: 6 vs 3, 7 vs 4; cited from earlier work.
Where [16] appears, read: Huvec-12 normal cell line, read-out: Cytotoxic activities IC50, Huvec-12.
The mark [17] stands for this setting: L02 normal cell line, read-out: Cytotoxic activities IC50, L02.

Converted amounts (≈) assume the structure as drawn. Like-named read-outs stand apart in the source and are kept apart here.

In the case of `CC[C@@]1(O)C[C@H](O[C@H]2C[C@H](N(C)C)[C@@H](O[C@H]3C[C@H](O)[C@@H](O[C@H]4CC[C@H](O)[C@H](C)O4)[C@H](C)O3)[C@H](C)O2)c2c(O)c3c(c(O)c2[C@H]1O[C@H]1C[C@H](N(C)C)[C@@H](O[C@H]2CC[C@H](O[C@H]4CC[C@H](O)[C@H](C)O4)[C@H](C)O2)[C@H](C)O1)C(=O)c1cccc(O)c1C3=O` [Compound 6, cosmomycin C], in data set [1], the “fold more efficient CytA processing than for 22–26” value is recorded as 2–3 fold. In [1], the Km worked out at 14.3 µM. In addition, the kcat in data set [1] turned out to be 0.0118 s⁻¹. In addition, the MIC in data set [2] turned out to be 0.06 µg/mL (≈ 0.0511 µM); in data set [3], 0.125 µg/mL (≈ 0.107 µM); in data set [4], 0.001 µg/mL (≈ 0.000852 µM); in data set [5] it was 0.005 µg/mL (≈ 0.00426 µM); in [6], 0.03 µg/mL (≈ 0.0256 µM). For the same compound, the IC50 came to 290 nM in data set [7] (setting [16]); 100 nM in data set [7] (setting [17]); 35 nM in [8]; 17 nM in [9]; 24 nM in [10]; 270 nM in data set [11]. Besides, the IC50 in [12] turned out to be 640 nM; in data set [13], 500 nM; in data set [14], 17 nM. For the same compound, the “fold more active against Staphylococcus aureus than reduced congeners 3 and 4, respectively” value in data set [15] is more than 100 fold.

As to `CC[C@@]1(O)C[C@H](O[C@H]2C[C@H](N(C)C)[C@H](O[C@H]3C[C@H](O)[C@H](O[C@H]4CC[C@H](O)[C@H](C)O4)[C@H](C)O3)[C@H](C)O2)c2c(O)c3c(c(O)c2[C@H]1O[C@H]1C[C@H](N(C)C)[C@H](O[C@H]2C[C@H](O)[C@H](O[C@H]4CC[C@H](O)[C@H](C)O4)[C@H](C)O2)[C@H](C)O1)C(=O)c1cccc(O)c1C3=O` [Compound 7, cosmomycin D], the “fold more efficient CytA processing than for 22–26” value in data set [1] is 2–3 fold. For the same compound, in data set [1], the Km amounted to 17.9 µM. The kcat in data set [1] turned out to be 0.0132 s⁻¹. Besides, the MIC was 0.03 µg/mL (≈ 0.0252 µM) in data set [2]; 0.125 µg/mL (≈ 0.105 µM) in [3]; 0.002 µg/mL (≈ 0.00168 µM) in data set [4]; 0.005 µg/mL (≈ 0.0042 µM) in [5]; 0.01 µg/mL (≈ 0.00841 µM) in data set [6]. Besides, the IC50 was 300 nM in data set [7] (setting [16]); 130 nM in data set [7] (setting [17]); 19 nM in [8]; 110 nM in data set [9]; 31 nM in data set [10]; 510 nM in [11]. In addition, the half-inhibitory concentration (IC50) in [12] was 660 nM; in data set [13], 1840 nM; in data set [14], 99 nM. Besides, the “fold more active against Staphylococcus aureus than reduced congeners 3 and 4, respectively” value in [15] is more than 100 fold.
